The source of these data is ChEMBL document CHEMBL1201862, “PubChem BioAssay data set” (2004).

The source made the active and inactive calls.

Assay [1] concerns the target Intestinal-type alkaline phosphatase (Homo sapiens, UniProt P09923). Put plainly: Dose Response confirmation of uHTS hits from a small molecule inhibitors of human intestinal alkaline phosphatase via a luminescent assay. [Related pubchem assays (depositor defined):AID2544, AID2574]. Type of assay: functional.
The target of assay [2] is Eukaryotic translation initiation factor 4E (Mus musculus, UniProt P63073). Briefly: blockers of eIF4G binding by eIF4E – biochemical, TR-FRET, dose response (AID 855).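 Also: potency for disrupting eIF4E binding to eIF4GI seen as loss of FRET.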 It is filed as functional. (In general: In TR-FRET formats the signal depends on donor and acceptor labels being close together.)
Eukaryotic translation initiation factor 4E, sequence (P63073 whole entry): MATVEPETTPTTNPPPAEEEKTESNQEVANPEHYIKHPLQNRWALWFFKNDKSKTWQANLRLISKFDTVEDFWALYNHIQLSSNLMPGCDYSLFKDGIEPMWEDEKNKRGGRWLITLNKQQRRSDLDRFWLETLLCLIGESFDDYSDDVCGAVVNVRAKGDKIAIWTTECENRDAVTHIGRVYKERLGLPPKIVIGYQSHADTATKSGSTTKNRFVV
In assay [3] the target is T1, Neuropeptide Y receptor type 2 (Homo sapiens, UniProt P49146).
T1 sequence (P49146 whole entry): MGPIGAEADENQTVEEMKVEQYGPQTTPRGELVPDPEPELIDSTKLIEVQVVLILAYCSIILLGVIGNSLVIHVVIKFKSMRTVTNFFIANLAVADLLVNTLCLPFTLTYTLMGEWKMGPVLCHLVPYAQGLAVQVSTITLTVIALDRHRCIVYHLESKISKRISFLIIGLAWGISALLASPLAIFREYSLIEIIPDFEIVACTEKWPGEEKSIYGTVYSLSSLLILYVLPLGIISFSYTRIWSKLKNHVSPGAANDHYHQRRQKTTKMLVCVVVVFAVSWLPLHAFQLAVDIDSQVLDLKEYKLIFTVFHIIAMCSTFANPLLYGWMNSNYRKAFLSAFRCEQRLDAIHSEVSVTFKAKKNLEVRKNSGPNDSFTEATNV
Briefly: Fluorescence-based cell-based high-throughput dose response assay for agonists of NPY-Y2. [Related pubchem assays: 1703 (Screening assay (CNGC inhibitors).), 1359 (Screening assay (NPY-Y2 potentiators or agonists).), 1304 (Screening assay (NPY-Y1 potentiators or agonists).), 1710 (Screening assay (NPY-Y2 agonists).), 1791 (Summary AID.)]. Type of assay: functional.

Another assay deals with HEK293. Briefly: Fluorescence-based counterscreen for potentiators or agonists of NPY-Y2: cell-based high-throughput dose response assay to identify inhibitors of cyclic nucleotide gated ion channel (CNGC) activity. In this assay, the parental HEK293 cell line transfected with a cyclic-nucleotide gated ion channel (CNGC)-based cAMP sensor is used to measure inhibition of isoproterenol-induced CNGC activity by test compound. Type of assay: functional. As to conditions: Homo sapiens. (In general: Counterscreens check selectivity or assay interference.)

For assay [4], the target named is T2, Neuropeptide Y receptor type 1 (Homo sapiens, UniProt P25929).
T2 sequence (P25929 whole entry): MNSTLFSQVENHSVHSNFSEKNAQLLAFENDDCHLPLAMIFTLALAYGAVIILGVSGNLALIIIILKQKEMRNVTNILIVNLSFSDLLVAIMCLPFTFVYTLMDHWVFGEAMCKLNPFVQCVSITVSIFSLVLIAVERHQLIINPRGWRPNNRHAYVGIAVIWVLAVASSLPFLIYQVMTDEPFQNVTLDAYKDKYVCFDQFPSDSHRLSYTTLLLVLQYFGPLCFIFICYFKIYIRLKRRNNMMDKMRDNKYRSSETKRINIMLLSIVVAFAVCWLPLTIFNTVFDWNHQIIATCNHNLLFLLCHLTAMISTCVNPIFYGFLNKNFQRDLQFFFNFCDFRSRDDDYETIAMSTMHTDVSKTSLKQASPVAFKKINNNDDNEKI
Briefly: Fluorescence-based counterscreen for agonists of NPY-Y2: cell-based high-throughput dose response assay for agonists of NPY-Y1. It is filed as functional.

In assay [5] the target is T3, Short transient receptor potential channel 4 (Mus musculus, UniProt Q9QUQ5).
T3 sequence (Q9QUQ5 whole entry): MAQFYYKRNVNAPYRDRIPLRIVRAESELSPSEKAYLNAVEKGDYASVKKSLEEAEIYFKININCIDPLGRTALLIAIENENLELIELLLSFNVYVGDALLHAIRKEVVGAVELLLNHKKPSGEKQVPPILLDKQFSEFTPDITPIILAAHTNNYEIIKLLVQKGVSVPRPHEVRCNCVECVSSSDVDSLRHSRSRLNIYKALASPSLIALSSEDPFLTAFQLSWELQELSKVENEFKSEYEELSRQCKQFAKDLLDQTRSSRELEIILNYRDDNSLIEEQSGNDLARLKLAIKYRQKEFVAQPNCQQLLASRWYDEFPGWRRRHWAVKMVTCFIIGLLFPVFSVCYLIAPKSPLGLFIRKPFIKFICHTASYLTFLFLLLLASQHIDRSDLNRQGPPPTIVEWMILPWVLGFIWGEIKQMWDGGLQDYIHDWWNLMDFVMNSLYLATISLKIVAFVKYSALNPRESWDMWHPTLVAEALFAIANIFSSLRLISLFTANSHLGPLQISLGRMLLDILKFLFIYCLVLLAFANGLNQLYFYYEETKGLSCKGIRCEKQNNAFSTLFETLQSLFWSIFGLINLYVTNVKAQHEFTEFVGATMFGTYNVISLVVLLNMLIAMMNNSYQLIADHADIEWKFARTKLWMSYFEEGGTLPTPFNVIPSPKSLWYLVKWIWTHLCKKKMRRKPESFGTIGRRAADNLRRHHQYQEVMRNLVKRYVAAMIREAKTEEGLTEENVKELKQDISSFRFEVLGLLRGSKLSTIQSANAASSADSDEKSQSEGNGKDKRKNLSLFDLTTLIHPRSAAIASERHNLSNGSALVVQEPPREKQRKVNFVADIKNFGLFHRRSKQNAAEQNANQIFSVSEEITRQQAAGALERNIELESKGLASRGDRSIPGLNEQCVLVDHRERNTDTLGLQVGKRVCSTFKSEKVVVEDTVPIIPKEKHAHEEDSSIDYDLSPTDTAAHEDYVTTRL
Put plainly: block of DAMGO-driven TRPC4 calcium entry – cell-based, HEK293 TRPC4/mu-opioid, Fluo-4 calcium, dose response (AID 434942).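 Also: potency of inhibitors blocking the TRPC4 calcium response.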 Type of assay: functional.

Another assay has as its target X-box-binding protein 1 (Homo sapiens, UniProt P17861). It is filed as functional, Cricetulus griseus.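 Also: confirmatory dose-response counter-screen serving a CHOP assay.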
For assay [6], the system named is Streptococcus sp. 'group A'. Briefly: Streptococcus pyogenes SK(-)GAS viability under kanamycin – luminescence, BacTiterGlo, confirmation, counter-screen for streptokinase expression inhibitor project, dose response (AID 1900). It is filed as functional, organism-based.
Assay [7] concerns Streptococcus. Briefly: GAS UMAA2166 growth inhibition – luminescence, BacTiterGlo, counter-screen for streptokinase expression inhibitor project, dose response (AID 1915).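 Also: potency for reduction of bacterial viability or growth.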 It is filed as functional, organism-based.
Another assay has as its target T4, Streptokinase A (Streptococcus pyogenes serotype M1, UniProt P10520).
T4 sequence (P10520 whole entry): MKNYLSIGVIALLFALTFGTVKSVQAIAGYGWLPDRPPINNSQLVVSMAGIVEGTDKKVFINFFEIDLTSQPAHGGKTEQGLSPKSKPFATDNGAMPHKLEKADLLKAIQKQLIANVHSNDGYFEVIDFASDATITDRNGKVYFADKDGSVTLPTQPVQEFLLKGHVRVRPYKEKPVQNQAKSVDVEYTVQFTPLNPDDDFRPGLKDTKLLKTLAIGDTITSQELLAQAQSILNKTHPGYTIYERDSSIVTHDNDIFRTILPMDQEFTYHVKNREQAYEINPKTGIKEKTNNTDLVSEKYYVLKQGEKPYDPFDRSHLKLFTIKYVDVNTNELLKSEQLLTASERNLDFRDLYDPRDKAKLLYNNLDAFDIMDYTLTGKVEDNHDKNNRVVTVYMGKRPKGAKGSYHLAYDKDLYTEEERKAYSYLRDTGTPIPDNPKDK
Briefly: viability-normalized secreted streptokinase activity reduction – plasminogen activation absorbance, OD405, dose response (AID 1914).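 Also: secreted streptokinase activity via plasminogen activation per viability signal from cell pellet.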 Type of assay: functional, Streptococcus pyogenes M1 GAS.

Assay [8] concerns Streptococcus. Briefly: Luminescence Microorganism-Based Dose Response Follow up to Identify Compounds Cytotoxic to Streptococcus. [Related pubchem assays: 1677 (Project Summary), 1915, 1914, 1902 (Retest at Dose), 1900 (Counter Screen), 1662 (Primary HTS)]. Type of assay: functional, organism-based.
In a further assay the test system is Vero. Put plainly: viability of Vero cells under compound – cytotoxicity control for flavivirus capping enzyme inhibitors (AID 588742). It is filed as functional. The settings on record: Chlorocebus sabaeus.
Another assay has as its target Beta-galactosidase (Escherichia coli, UniProt Q8VNN2). Briefly: detection-enzyme interference by beta-gal modulators – biochemical, E. coli enzyme, set 3, artefact control for CCR6 antagonist project, dose response (AID 504712). Type of assay: functional.

By IC50 is commonly meant the concentration needed to halve the response being measured. By EC50 is commonly meant the midpoint of the concentration-response curve. As a reminder, the CC50 is the concentration giving 50% cytotoxicity.

X-box-binding protein 1, sequence (P17861 whole entry): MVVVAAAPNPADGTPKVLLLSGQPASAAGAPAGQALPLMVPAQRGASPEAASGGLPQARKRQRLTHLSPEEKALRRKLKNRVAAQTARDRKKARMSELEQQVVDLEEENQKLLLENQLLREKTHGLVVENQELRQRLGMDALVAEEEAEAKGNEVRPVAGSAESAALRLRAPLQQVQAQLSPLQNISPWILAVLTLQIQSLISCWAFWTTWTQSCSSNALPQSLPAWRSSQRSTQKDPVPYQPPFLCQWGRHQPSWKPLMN
Beta-galactosidase, sequence (Q8VNN2 whole entry): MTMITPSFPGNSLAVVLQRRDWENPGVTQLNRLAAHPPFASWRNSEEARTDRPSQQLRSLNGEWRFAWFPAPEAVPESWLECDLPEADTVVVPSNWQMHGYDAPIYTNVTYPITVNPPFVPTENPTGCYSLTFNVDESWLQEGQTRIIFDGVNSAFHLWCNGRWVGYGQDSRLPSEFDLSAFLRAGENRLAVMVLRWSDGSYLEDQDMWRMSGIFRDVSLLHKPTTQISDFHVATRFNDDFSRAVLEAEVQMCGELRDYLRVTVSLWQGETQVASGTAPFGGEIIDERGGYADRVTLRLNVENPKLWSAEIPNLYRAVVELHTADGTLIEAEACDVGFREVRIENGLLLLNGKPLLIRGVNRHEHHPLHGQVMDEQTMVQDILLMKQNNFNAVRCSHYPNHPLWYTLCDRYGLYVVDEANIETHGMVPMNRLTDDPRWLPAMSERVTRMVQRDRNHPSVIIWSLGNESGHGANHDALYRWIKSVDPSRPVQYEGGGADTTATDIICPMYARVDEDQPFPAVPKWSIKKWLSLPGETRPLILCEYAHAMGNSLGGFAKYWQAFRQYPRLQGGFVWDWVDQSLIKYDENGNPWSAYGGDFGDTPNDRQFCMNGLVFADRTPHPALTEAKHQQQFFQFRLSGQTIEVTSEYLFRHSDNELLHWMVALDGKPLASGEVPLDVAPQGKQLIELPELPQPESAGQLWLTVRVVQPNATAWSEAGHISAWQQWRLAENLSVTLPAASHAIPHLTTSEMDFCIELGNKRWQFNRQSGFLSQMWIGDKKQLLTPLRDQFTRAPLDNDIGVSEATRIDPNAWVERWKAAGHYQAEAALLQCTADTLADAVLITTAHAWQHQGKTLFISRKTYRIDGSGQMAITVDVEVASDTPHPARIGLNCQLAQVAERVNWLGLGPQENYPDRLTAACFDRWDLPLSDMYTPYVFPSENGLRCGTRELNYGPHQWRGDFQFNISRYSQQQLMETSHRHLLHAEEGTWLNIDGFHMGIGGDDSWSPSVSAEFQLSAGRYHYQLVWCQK
Intestinal-type alkaline phosphatase, sequence (P09923 whole entry): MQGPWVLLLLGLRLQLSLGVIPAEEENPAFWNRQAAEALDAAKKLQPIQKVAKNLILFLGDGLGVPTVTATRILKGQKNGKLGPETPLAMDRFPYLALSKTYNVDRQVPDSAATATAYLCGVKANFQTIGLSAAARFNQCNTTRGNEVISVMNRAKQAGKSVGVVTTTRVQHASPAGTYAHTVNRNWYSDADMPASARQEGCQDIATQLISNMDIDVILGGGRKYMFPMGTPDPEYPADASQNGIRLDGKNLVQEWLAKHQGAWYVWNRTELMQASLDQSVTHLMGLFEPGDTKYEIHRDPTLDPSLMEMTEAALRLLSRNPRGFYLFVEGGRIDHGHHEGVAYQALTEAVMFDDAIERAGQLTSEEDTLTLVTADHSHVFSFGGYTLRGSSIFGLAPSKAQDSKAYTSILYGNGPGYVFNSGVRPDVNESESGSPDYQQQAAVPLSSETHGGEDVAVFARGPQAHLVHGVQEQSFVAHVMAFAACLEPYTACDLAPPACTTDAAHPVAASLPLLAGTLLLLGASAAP

On to `Cc1ccc(S(=O)(=O)N(CC(=O)Nc2ccc(C)cc2C)C(=O)N2CCN(C)CC2)cc1`, for which, in [1], the IC50 was > 100 µM (inactive).

For `Cc1cccc(N2CCc3c2nc2ccccc2c3N)c1`, the IC50 in [2] is > 64 µM (inactive). Also, the EC50 in [3] was 3.43 µM (active); with HEK293 it was 9.3 µM (active); in [4], 3.07 µM (active); in assay [5] it was 1.06 µM (active).

`CCCCCCn1c(SCCC)nc2c1c(=O)[nH]c(=O)n2C`: the “Absolute IC50 (XBP1)” value at X-box-binding protein 1 was determined as 10 µM.

For the compound `CC1CCN(C(=O)N2c3ccccc3Sc3ccccc32)CC1`, the EC50 in assay [6] was 13.8 µM (active); with Streptococcus [7] it was 28.5 µM (active); on Streptokinase A, > 150 µM (not active); in the assay on Streptococcus [8], > 500 µM (not active).

`O=C(N/N=C/c1cc([N+](=O)[O-])ccc1O)Nc1ccccc1`: in the assay with Vero, the CC50 is 35.1 µM (active). The IC50 at Beta-galactosidase is > 66.6 µM (inactive).
